The target of this test is T1, human S1P1 receptor (Homo sapiens, UniProt P21453).
T1 construct: expressed in transfected cells; membranes used
Kind of test: GTP γ35S binding assay for S1P1 activity. The test is classed as biochemical. The following applies: membranes of cells stably expressing the S1P1 receptor, agonist activity potency. On the procedure:
Compounds were synthesized and tested for S1P1 activity using the GTP γ^35S binding assay. These compounds may be assessed for their ability to activate or block activation of the human S1P1 receptor in cells stably expressing the S1P1 receptor.
GTP γ^35S binding was measured in the medium containing (mM) HEPES 25, pH 7.4, MgCl2 10, NaCl 100, dithiothreitol 0.5, digitonin 0.003%, 0.2 nM GTP γ^35S, and 5 μg membrane protein in a volume of 150 μl. Test compounds were included in the concentration range from 0.08 to 5,000 nM unless indicated otherwise. Membranes were incubated with 100 μM 5′-adenylylimidodiphosphate for 30 min, and subsequently with 10 μM GDP for 10 min on ice. Drug solutions and membrane were mixed, and then reactions were initiated by adding GTP γ^35S and continued for 30 min at 25° C. Reaction mixtures were filtered over Whatman GF/B filters under vacuum, and washed three times with 3 mL of ice-cold buffer (HEPES 25, pH 7.4, MgCl2 10 and NaCl 100). Filters were dried and mixed with scintillant, and counted for ^35S activity using a β-counter. Agonist-induced GTP γ^35S binding was obtained by subtracting that in the absence of agonist. Binding data were analyzed using a non-linear regression method. In case of antagonist assay, the reaction mixture contained 10 nM S1P in the presence of test antagonist at concentrations ranging from 0.08 to 5000 nM.

Molecules are shown by their SMILES.

T1 sequence (P21453 whole entry): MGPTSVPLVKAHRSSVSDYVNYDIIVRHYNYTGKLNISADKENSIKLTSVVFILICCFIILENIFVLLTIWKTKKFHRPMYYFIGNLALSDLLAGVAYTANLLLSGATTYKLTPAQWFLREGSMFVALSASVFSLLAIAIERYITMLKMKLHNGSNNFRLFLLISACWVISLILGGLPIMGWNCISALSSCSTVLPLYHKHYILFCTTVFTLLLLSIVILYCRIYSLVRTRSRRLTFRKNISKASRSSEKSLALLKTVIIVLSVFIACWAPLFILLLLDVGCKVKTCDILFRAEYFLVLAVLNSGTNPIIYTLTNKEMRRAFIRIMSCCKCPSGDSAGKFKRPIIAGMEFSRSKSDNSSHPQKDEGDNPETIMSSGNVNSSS

As usually defined, the EC50 is the concentration needed to bring the measured effect to its halfway point. Low readings indicate higher potency in that assay, high ones lower potency in that assay. Consider `Cc1nn(C(=O)CCc2ccc(CN3CC(C(=O)O)C3)cc2)c2c1C1C(C2)C1(C)C` (stereo not shown) [Compound 1, 1-{4-[3-oxo-3-(3,4,4-trimethyl-3b,4,4a,5-tetrahydro-1H-cyclopropa [3,4]cyclopenta[1,2-c]pyrazol-1-yl)propyl]benzyl}azetidine-3-carboxylic acid], for which the EC50 came to 450 nM.

The record behind these values is patent US9062030B2, “Pyrazole azetidine derivatives as sphingosine 1-phosphate (S1P) receptor modulators” (Allergan, Inc., priority 2013, dated 2015).
